Where “and” joins values, the source holds several entries; their conditions need not be identical. Identical values can stand only once. Like-named read-outs stand apart in the source and are kept apart here.
What was measured:
[1] = Pharmacokinetic profile at 25 and 50 mg/Kg (Table S9b); assay type: in vivo, Male CD1 mouse; details: for Cmax: oral, blood; for AUC(0-inf): read-out: AUCINF_obs
Experimental: An Acquity ultra-performance liquid chromatography (UPLC) system (Waters Corp., Milford, MA, USA) couple to a triple quadrupole mass spectrometer (API 4000, AB Sciex, Foster City, CA, USA) was used for the analysis ([99]).
Blood concentration time data were analyzed by Non-Compartmental PK analysis using Phoenix WinNonlin software (Certara, NY, US) to calculate PK parameters. […]
were housed in cages (Tecniplast®). The cages contained autoclaved dust free corncob bedding […]
provided ad libitum. Environmental conditions: Photoperiods, simulated dawn/dusk facility, were […]
The temperature range was 22± 2 °C. […]
route, once a day, 10ml/kg). […]
Two mice were treated at 50
To confirm the data, 3 animals per dose
(hematology, clinical chemistry, and necropsy). Additionally in the same animals with the same […]
determination of blood level exposures and pharmacokinetic analysis. […]
Peripheral blood […]
samples (15 µL) were taken at frequent intervals, mixed with 30 µL of H2O milli Q and immediately frozen on dry ice. The frozen samples were stored at −80 °C until analysis. Vehicle-treated mice experienced the same blood-sampling regimen (table S9, S10).
Bioanalysis and pharmacokinetics analysis: LC-MS
Bioanalysis of in vivo samples: Sample pretreatment Before the analysis 15ul of blood samples were defrost at ambient temperature and mixture with 200ul of ACN:MeOH (80:20). After protein precipitation samples were filtered by 0.45um filter plate (Multiscreen Solvinert 0.45um FTPE, Millipore). The 2ul TFA (Trifluoroacetic acid, sigmaAldrich) were added to each filtered sample in order to derivatize the compound to formamide analogue. This process occurs spontaneously.
LC-MS analysis An Acquity Ultra-Performance liquid chromatography (UPLC) system (Waters Corp., Milford, MA, USA) couple to a triple quadrupole mass spectrometer (API 4000™, AB Sciex, Foster City, CA, USA) was used for the analysis. The MS/MS transition was 311.340 / […]
The chromatographic separation was carried out at 0.4ml/min in a Acquity UPLC™ BEH C18 column (50x2.1 mm i.d., […]; Waters Corp.) at 40 °C with Acetonitrile (sigmaAldrich) and 0.1% formic acid as eluents.
Pharmacokinetic analysis Blood concentration time data were analyzed by Non-Compartmental PK analysis using Phoenix WinNonlin software (Certara NY, US) to calculate PK parameters. The maximum observed concentration (Cmax) and the time to reach it (Tmax), were determined. The area under concentration-time curve from dosing at time zero to the last measured concentration […]
time (AUClast) and the total area under concentration-time curve from time zero extrapolated to infinity (AUCinf), were calculated using a linear trapezoidal rule. […]

[2] = system: synchronized P. falciparum 3D7 parasites; test: Parasitemia and asexual stage phenotype analyses; assay type: cell-based, Plasmodium falciparum; details: IC80, synchronized 3D7, second IEC
Experimental: Fig. 1. […] (B) SYBR Green–based dose response assays were conducted on early-ring stage parasites (6 hours after invasion). […] 3D7 WT (blue), NF54 (green), drug-resistant strains Dd2 (red), HB3 (black), W2 (gray), and D10-ACP-GFP (purple) lines (Sigmoidal, 4PL, X is concentration, n ≥ 3, nonlinear regression, CI: 95%). (C) Schematic diagram of the development of P. falciparum after two consecutive erythrocytic cycles. The time points at which MED6-189 was introduced are depicted in green. HPS, hours post synchronization. […] The images depict various developmental stages of the parasite’s intraerythrocytic life cycle. Bordered images represent time points when drug was first introduced (n = 3 biological replicates, P < 0.05). […]
Data analysis The percentage of parasitized erythrocytes was determined by enumerating the number of Hoechst positive events out of the total erythrocytes after excluding non-single cells by forward and side scatter. The percent survival was calculated by averaging the parasitemia in the triplicates for each condition and then dividing by the parasitemia observed in the wells that did not receive drug treatment. The IC50 was then calculated using GraphPad Prism 9 (GraphPad […]
hrs. […] Parasitemia and proportion of the different asexual blood stages were determined by counting Giemsa-stained blood smears by light microscopy at every 12-hour time point. […]

[3] = male, CD1, mouse, whole blood, po, 25 mg/kg, Mean
[4] = male, CD1, mouse, whole blood, po, 50 mg/kg, Mean
[5] = male, CD1, mouse, whole blood, po, 50 mg/kg, individual mice

Q: What does the source list for `[C-]#[N+][C@]1(C)CC[C@H]2[C@@H]([C@@H](C(C)C)CC[C@]2(C)[N+]#[C-])[C@H]1O` [MED6-189]?
A: AUCINF_D_obs ([1]; 25 mg/Kg, Mean): 1505 kg·ng·h/mL/mg; AUC_%Extrap_obs ([1]; 25 mg/Kg, Mean): 0.955%; AUClast_D ([1]; 25 mg/Kg, Mean): 1491.7 kg·ng·h/mL/mg; Cmax_D ([1]; 25 mg/Kg, Mean): 188.6 kg·ng/mL/mg; HL_Lambda_z ([1]; 25 mg/Kg, Mean): 3.711 h; AUCINF_D_obs ([1]; 25 mg/Kg, individual mice): 2105.77 kg·ng·h/mL/mg and 904.22 kg·ng·h/mL/mg; AUCINF_obs ([1]; 25 mg/Kg, individual mice): 52644.4 ng·h/mL and 22605.6 ng·h/mL; AUC_%Extrap_obs ([1]; 25 mg/Kg, individual mice): 0.78% and 1.13%; AUClast ([1]; 25 mg/Kg, individual mice): 52232.7 ng·h/mL and 22350.5 ng·h/mL; AUClast_D ([1]; 25 mg/Kg, individual mice): 2089.31 kg·ng·h/mL/mg and 894.02 kg·ng·h/mL/mg; Cmax_D ([1]; 25 mg/Kg, individual mice): 232.4 kg·ng/mL/mg and 144.8 kg·ng/mL/mg; HL_Lambda_z ([1]; 25 mg/Kg, individual mice): 3.31 h and 4.11 h; Cmax ([1]; 25 mg/Kg, individual mice 1 and 2): 3620 ng/mL; AUCINF_D_obs ([1]; 50 mg/Kg, Mean): 2099.8 kg·ng·h/mL/mg; AUC_%Extrap_obs ([1]; 50 mg/Kg, Mean): 4.415%; AUClast_D ([1]; 50 mg/Kg, Mean): 2014.32 kg·ng·h/mL/mg; Cmax_D ([1]; 50 mg/Kg, Mean): 158.4 kg·ng/mL/mg; HL_Lambda_z ([1]; 50 mg/Kg, Mean): 4.536 h; AUCINF_D_obs ([1]; 50 mg/Kg, individual mice): 1882 kg·ng·h/mL/mg and 2317.54 kg·ng·h/mL/mg; AUCINF_obs ([1]; 50 mg/Kg, individual mice): 115877 ng·h/mL; AUC_%Extrap_obs ([1]; 50 mg/Kg, individual mice): 7.74% and 1.09%; AUClast ([1]; 50 mg/Kg, individual mice): 114617 ng·h/mL; AUClast_D ([1]; 50 mg/Kg, individual mice): 1736.3 kg·ng·h/mL/mg and 2292.34 kg·ng·h/mL/mg; Cmax_D ([1]; 50 mg/Kg, individual mice): 137.2 kg·ng/mL/mg and 179.6 kg·ng/mL/mg; HL_Lambda_z ([1]; 50 mg/Kg, individual mice): 5.74 h and 3.33 h; Cmax ([1]; 50 mg/Kg, individual mice 1 and 2): 8980 ng/mL; AUC(0-t) [1, 3]: 37300 ng·h/mL; AUC(0-inf) [1, 3]: 37600 ng·h/mL; Cmax ([1]; male, CD1, mouse, whole blood, po, 25 mg/kg, Mean of 2 mice, read-out: Cmax): 4720 ng/mL; Cmax ([1]; male, CD1, mouse, whole blood, po, 25 mg/kg, individual mice 1 and 2, read-out: Cmax): 5810 ng/mL; AUC(0-t) [1, 4]: 101000 ng·h/mL; AUC(0-inf) [1, 4]: 105000 ng·h/mL; AUC(0-t) [1, 5]: 86800 ng·h/mL; AUC(0-inf) [1, 5]: 94100 ng·h/mL; Cmax ([1]; male, CD1, mouse, whole blood, po, 50 mg/kg, Mean of 2 mice, read-out: Cmax): 7920 ng/mL; Cmax ([1]; male, CD1, mouse, whole blood, po, 50 mg/kg, individual mice 1 and 2, read-out: Cmax): 6860 ng/mL; Tmax ([1]; male, CD1, mouse, whole blood, po, 25 mg/Kg, individual mice): 4 h; Tmax ([1]; male, CD1, mouse, whole blood, po, 50 mg/Kg, individual mice): 7 h; effect on asexual intraerythrocytic development [2]: unable to fully undergo schizogony or reinvasion
